Results reported in paper PMC12153776, “Synthesis and Preliminary Cytotoxicity Evaluation of 3-Lup-20(29)-Ene-3β,28-Diol Glycoconjugates Containing a Succinic Linker and a 1,2,3-Triazole Ring” (Cancers, 2025).

What was measured:
[1] = tested on: MCF-7 (human breast adenocarcinoma cell line); assay: MTT cytotoxicity assay, MCF-7 cells; type: cell-based; conditions: for IC50: Homo sapiens, MCF7, 72 h, MTT, incubation 72 h
Description: (§1) For biological studies three different cell lines were used: the NHDF-Neo cell line (Lonza, Poland), the HCT-116 cell line (American Type Culture Collection, ATCC, Manassas, VA, USA), and the MCF-7 cell line (purchased by the Maria Sklodowska-Curie Memorial Cancer Center and Institute of Oncology, Gliwice, Poland and gifted for our research). Cells were cultured in 96-well plates (Sarstedt, Nümbrecht, Germany) using RPMI 1640 or DMEM/F12 media (100 µL per well) supplemented with fetal bovine serum (FBS, EURx, Gdańsk, Poland), and with Antibiotic–Antimycotic Solution (Avantor, Gliwice, Poland). Cells were seeded and incubated for 24 h prior to treatment: […] Stock solutions of the tested compounds were prepared in DMSO and stored under appropriate conditions. Immediately prior to the experiment, these solutions were diluted to the desired concentrations using a growth medium. In no dilution was the DMSO content higher than 1% v/v. The resulting solutions were then used to treat cells (100 µL per well). […] In parallel, the influence of copper ions on cellular proliferation was investigated. In this case, the procedure was analogous to the previously described one, with the difference that glycoconjugates were added in the culture medium with the addition of CuCl2. […] ACROS Organics) was applied following the manufacturer’s protocol. Absorbance of the formazan, formed during the test and dissolved in 100 µL of DMSO, was measured spectrophotometrically at 570 nm using a plate reader (Epoch, Bio-Tek, Winooski, VT, USA). The measured absorbance was analyzed to assess proliferation, where tested samples were compared with the untreated controls (100%). The results from MTT were presented as the mean of three experiments (biological replicates). For each experimental condition within a replicate, four technical repetitions were performed. Technical repetitions were averaged to obtain a single value per replicate. Statistical analyses were conducted using means of the biological replicates. The percentage of viable cells and the standard deviation (SD) were calculated in Excel (Microsoft Office 365, A3 for faculty), using the STDEV.S formula, which determines the standard deviation for a sample set. […] The results are expressed as the average value ± standard deviation (SD). To evaluate statistical significance, two-way analysis of variance (ANOVA) with replication was performed to assess the effects of compound type and concentration on cell proliferation. When significant main effects were observed (p < 0.05), pairwise comparisons between betulin (BN) and each analogue at corresponding concentrations were conducted using two-tailed unpaired t-tests. […] All statistical tests were performed in Excel. […] Two cancer cell lines were chosen for the study: HCT 116 (colorectal carcinoma cell line) and MCF-7 (human breast adenocarcinoma cell line). This selection was not random, as in both types of cancer cell lines overexpression of glucose and galactose transporters is observed. To determine if glycoconjugation enhanced the selectivity of the betulin derivatives, cytotoxicity tests on Normal Human Dermal Fibroblast-Neonatal cells (NHDF-Neo) were also conducted. The selection of this healthy cell line, so atypical in relation to the cancer cells tested, was based on the desire to compare the selectivity index determined for the currently obtained glycoconjugates with the results obtained for the betulin derivatives we described earlier and draw preliminary conclusions on structure-selectivity relationships. […] The incubation time for individual cell lines varied from 24 to 72 h, due to differences in the doubling time of these cell lines.

[2] = tested on: HCT 116 (colorectal carcinoma cell line); assay: cells; type: cell-based, human; conditions: for IC50: Homo sapiens, MTT
Description: as §1, with “Poland).” for “Poland). Cells were seeded and incubated for 24 h prior to treatment:”, “proliferation.” for “proliferation. When significant main effects were observed (p < 0.05), pairwise comparisons between betulin (BN) and each analogue at corresponding concentrations were conducted using two-tailed unpaired t-tests.”, “conducted.” for “conducted. The selection of this healthy cell line, so atypical in relation to the cancer cells tested, was based on the desire to compare the selectivity index determined for the currently obtained glycoconjugates with the results obtained for the betulin derivatives we described earlier and draw preliminary conclusions on structure-selectivity relationships.”

[3] = tested on: Normal Human Dermal Fibroblast-Neonatal cells (NHDF-Neo); assay: MTT cytotoxicity assay, healthy NHDF-Neo cells; type: cell-based; conditions: 24 h, incubation 24 h
Description: as §1, with “Poland).” for “Poland). Cells were seeded and incubated for 24 h prior to treatment:”, “proliferation.” for “proliferation. When significant main effects were observed (p < 0.05), pairwise comparisons between betulin (BN) and each analogue at corresponding concentrations were conducted using two-tailed unpaired t-tests.”, “conducted.” for “conducted. The selection of this healthy cell line, so atypical in relation to the cancer cells tested, was based on the desire to compare the selectivity index determined for the currently obtained glycoconjugates with the results obtained for the betulin derivatives we described earlier and draw preliminary conclusions on structure-selectivity relationships.”

[4] = HCT-116, 24 h, incubation 24 h, no copper added
[5] = HCT-116, 48 h, incubation 48 h, no copper added
[6] = HCT-116, 48 h, incubation 48 h, addition of CuCl2 at 20 µM

Row | SMILES | IC50 ([1]; no copper added) [µM] | IC50 [2, 4] [µM] | IC50 [2, 5] [µM] | IC50 ([1]; addition of CuCl2 at 20 µM) [µM] | SI MCF-7 (ratio of IC50 of NHDF-Neo to IC50 of cancer cells) ([1]; no copper added) | IC50 [2, 6] [µM] | IC50 ([3]; addition of CuCl2 at 20 µM) [µM] | IC50 ([3]; no copper added) [µM] | SI MCF-7 (ratio of IC50 of NHDF-Neo to IC50 of cancer cells) ([1]; addition of CuCl2 at 20 µM) | SI HCT 116 (ratio of IC50 of NHDF-Neo to IC50 of cancer cells) ([2]; addition of CuCl2 at 20 µM) | SI HCT 116 (ratio of IC50 of NHDF-Neo to IC50 of cancer cells) ([2]; no copper added)
1 | COc1cccc2c1C(=O)c1c(O)c3c(c(O)c1C2=O)C[C@@](O)(C(=O)CO)C[C@@H]3O[C@H]1C[C@H](N)[C@H](O)[C@H](C)O1 [Doxorubicin, doxorubicin, reference compound] | 0.29 ± 0.04 | 13.2 ± 0.58 | 1.89 ± 0.19 | – | – | – | – | – | – | – | –
2 | C=C(C)[C@@H]1CC[C@]2(COC(=O)CCC(=O)OCc3cn([C@@H]4O[C@H](COC(C)=O)[C@H](OC(C)=O)[C@H](OC(C)=O)[C@H]4OC(C)=O)nn3)CC[C@]3(C)C(CCC4[C@@]5(C)CC[C@H](OC(C)=O)C(C)(C)C5CC[C@]43C)C12 (stereo partly drawn) [6a] | 123 ± 6.84 | > 200 | > 200 | 59.8 ± 1.85 | >1.6 | > 200 | > 200 | > 200 | – | – | –
3 | C=C(C)[C@@H]1CC[C@]2(COC(=O)CCC(=O)OCc3cn(CCCO[C@@H]4O[C@H](COC(C)=O)[C@@H](OC(C)=O)[C@H](OC(C)=O)[C@H]4OC(C)=O)nn3)CC[C@]3(C)C(CCC4[C@@]5(C)CC[C@H](OC(C)=O)C(C)(C)C5CC[C@]43C)C12 (stereo partly drawn) [7b] | 152 ± 2.91 | > 200 | > 200 | 124 ± 1.64 | >1.3 | 112.5 ± 0.57 | > 200 | > 200 | >1.6 | >1.8 | –
4 | C=C(C)[C@@H]1CC[C@]2(COC(=O)CCC(=O)OCc3cn(CCO[C@@H]4O[C@H](COC(C)=O)[C@@H](OC(C)=O)[C@H](OC(C)=O)[C@H]4OC(C)=O)nn3)CC[C@]3(C)C(CCC4[C@@]5(C)CC[C@H](O)C(C)(C)C5CC[C@]43C)C12 (stereo partly drawn) [7c] | 135 ± 7.92 | > 200 | > 200 | 118 ± 1.42 | >1.5 | > 200 | > 200 | > 200 | >1.7 | – | –
5 | C=C(C)[C@@H]1CC[C@]2(COC(=O)CCC(=O)OCc3cn(CCCO[C@@H]4O[C@H](COC(C)=O)[C@@H](OC(C)=O)[C@H](OC(C)=O)[C@H]4OC(C)=O)nn3)CC[C@]3(C)C(CCC4[C@@]5(C)CC[C@H](O)C(C)(C)C5CC[C@]43C)C12 (stereo partly drawn) [7d] | 165 ± 8.32 | > 200 | 131 ± 8.76 | 147 ± 2.32 | >1.2 | 60.4 ± 6.95 | > 200 | > 200 | >1.4 | – | >1.5
6 | C=C(C)[C@@H]1CC[C@]2(CO)CC[C@]3(C)[C@H](CC[C@@H]4[C@@]5(C)CC[C@H](O)C(C)(C)[C@@H]5CC[C@]43C)[C@@H]12 [BN, 3-Lup-20(29)-ene-3β,28-diol] | 17.9 ± 1.06 | 34.9 ± 4.26 | 26 ± 5.4 | 13.9 ± 2.35 | 1.9 | 20.8 ± 2.71 | 33.3 ± 5.97 | 34.9 ± 8.36 | 2.4 | 1.6 | 1.3
7 | C=C(C)[C@@H]1CC[C@]2(COC(=O)CCC(=O)OCc3cn(C[C@H]4O[C@@H](OC(C)=O)[C@H](OC(C)=O)[C@@H](OC(C)=O)[C@H]4OC(C)=O)nn3)CC[C@]3(C)C(CCC4[C@@]5(C)CC[C@H](OC(C)=O)C(C)(C)C5CC[C@]43C)C12 (stereo partly drawn) [8a] | 153 ± 1.98 | > 200 | > 200 | 88.3 ± 3.31 | >1.3 | > 200 | > 200 | > 200 | >2.3 | – | –
8 | C=C(C)[C@@H]1CC[C@]2(COC(=O)CCC(=O)OCc3cn([C@@H]4O[C@H](COCc5ccccc5)[C@H](OCc5ccccc5)[C@H](OCc5ccccc5)[C@H]4OCc4ccccc4)nn3)CC[C@]3(C)C(CCC4[C@@]5(C)CC[C@H](OC(C)=O)C(C)(C)C5CC[C@]43C)C12 (stereo partly drawn) [6b] | 184 ± 7.59 | > 200 | > 200 | – | >1.1 | – | – | > 200 | – | – | –
9 | C=C(C)[C@@H]1CC[C@]2(COC(=O)CCC(=O)OCc3cn(CCO[C@@H]4O[C@H](COC(C)=O)[C@@H](OC(C)=O)[C@H](OC(C)=O)[C@H]4OC(C)=O)nn3)CC[C@]3(C)C(CCC4[C@@]5(C)CC[C@H](OC(C)=O)C(C)(C)C5CC[C@]43C)C12 (stereo partly drawn) [7a] | 144 ± 4.7 | > 200 | > 200 | 135 ± 10.2 | >1.4 | 150 ± 8.01 | > 200 | > 200 | >1.5 | >1.3 | –
10 | C=C(C)[C@@H]1CC[C@]2(COC(=O)CCC(=O)OCc3cn([C@@H]4O[C@H](COC(C)=O)[C@@H](OC(C)=O)[C@H](OC(C)=O)[C@H]4OC(C)=O)nn3)CC[C@]3(C)C(CCC4[C@@]5(C)CC[C@H](OC(C)=O)C(C)(C)C5CC[C@]43C)C12 (stereo partly drawn) [5a] | 163 ± 7.65 | > 200 | > 200 | 109 ± 5.85 | >1.2 | > 200 | > 200 | > 200 | >1.8 | – | –
